Drawing on patent US8519149B2, “Tricyclic compounds as mPGES-1 inhibitors” (Glenmark Pharmaceuticals S.A., priority 2010, dated 2013), this text covers inhibition and IC50 for 17 compounds.

The test has as its target T1, Recombinant human mPGES-1 (Homo sapiens, UniProt O14684).
T1 sequence (O14684 1-152): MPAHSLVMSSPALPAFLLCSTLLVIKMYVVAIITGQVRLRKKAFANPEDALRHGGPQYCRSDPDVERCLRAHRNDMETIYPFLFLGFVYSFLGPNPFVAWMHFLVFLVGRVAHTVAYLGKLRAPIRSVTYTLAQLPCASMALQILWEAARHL
Briefly: In-vitro mPGES-1 enzyme inhibition assay (PGE2 formation from PGH2, HTRF detection). To be noted: for inhibition at 1 µM: 1 μM test compound, read-out: Percentage inhibition at 1 μM; for inhibition at 1 µM / inhibition at 10 µM: recombinant human mPGES-1 microsomal fraction; for inhibition at 10 µM: 10 μM test compound, read-out: Percentage inhibition at 10 μM; for IC50: class symbols, selected examples. It counts as biochemical. Summed up: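 IC50 values were derived by nonlinear regression of percent inhibition relative to enzyme reactions run without inhibitor. PGE2 formed from PGH2 with GSH was quantified by antibody-based HTRF after stannous chloride quench. Enzyme source was human mPGES-1 microsomes at 40-60 μg/mL protein; DMSO 0.5% (v/v).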

Broadly, the inhibition is the percentage by which the read-out fell short of the control. What is called IC50 is the concentration that gives 50% inhibition.

Structures are written as SMILES. A value given as a limit tells only on which side of the number the result lay.

As to `Cc1nc2c(o1)c(C(=O)Nc1ccc(Br)cc1)cc1nc(Nc3c(Cl)cccc3Cl)[nH]c12` [Example-179, N-(4-Bromophenyl)-7-[(2,6-dichlorophenyl)amino]-2-methyl-8H-imidazo[4,5-e][1,3]benzoxazole-4-carboxamide], the inhibition at 1 µM is 93.7%, the inhibition at 10 µM came out at 97.4% and the IC50 is less than 50 nM.

In the case of `CC1(C)Cc2c(c(C(=O)Nc3ccc(C(C)(C)C)cc3)cc3nc(Nc4c(F)cccc4Cl)[nH]c23)O1` [Example-114, N-(4-tert-Butylphenyl)-2-[(2-chloro-6-fluorophenyl)amino]-7,7-dimethyl-7,8-dihydro-1H-furo[3,2-e]benzimidazole-5-carboxamide], the inhibition at 1 µM was found to be 99.4%, the inhibition at 10 µM came to 99.1% and the IC50 was less than 50 nM.

Turning to `Cc1cc(C(F)(F)F)ccc1NC(=O)c1cc2nc(Nc3c(F)cccc3Cl)[nH]c2c2c1OC(C)(C)C2` [Example-113, 2-[(2-Chloro-6-fluorophenyl)amino]-7,7-dimethyl-N-[2-methyl-4-(trifluoromethyl)phenyl]-7,8-dihydro-1H-furo[3,2-e]benzimidazole-5-carboxamide], the inhibition at 1 µM is 99.4%, the inhibition at 10 µM stood at 98.7% and the IC50 is less than 50 nM.

On to `CC1(C)Cc2c(c(C(=O)Nc3cc(C4CC4)ccc3F)cc3nc(Nc4c(Cl)cncc4Cl)[nH]c23)O1` [Example-203, N-(5-Cyclopropyl-2-fluorophenyl)-2-((3,5-dichloropyridin-4-yl)amino)-7,7-dimethyl-7,8-dihydro-1H-benzofuro[4,5-d]imidazole-5-carboxamide], for which the inhibition at 1 µM was 100%, the inhibition at 10 µM was 94.8% and the IC50 was less than 50 nM.

On to `Cc1cc2c(o1)c(C(=O)NCc1ccccc1C(F)(F)F)cc1nc(Nc3c(Cl)cccc3Cl)[nH]c12` [Example-85, 2-[(2,6-Dichlorophenyl)amino]-7-methyl-N-[2-(trifluoromethyl)benzyl]-1H-furo[3,2-e]benzimidazole-5-carboxamide], for which the inhibition at 1 µM was 93.3%, the inhibition at 10 µM was determined as 95.4% and the IC50 fell in the range of 50 to 100 nM.

Take `CC(C)(C)CC(C)(C)NC(=O)c1cc2nc(Nc3c(Cl)cncc3Cl)[nH]c2c2c1OC(C)(C)C2` [Example-25, 2-[(3,5-Dichloropyridin-4-yl)amino]-7,7-dimethyl-N-(2,4,4-trimethylpentan-2-yl)-7,8-dihydro-1H-furo[3,2-e]benzimidazole-5-carboxamide]: the inhibition at 1 µM was 92%, the inhibition at 10 µM is 98.2% and the IC50 is less than 50 nM.

In the case of `CC1(C)Cc2c(c(C(=O)Nc3ccc(C(F)(F)F)cc3)cc3nc(Nc4ccc(F)cc4Cl)[nH]c23)O1` [Example-86, 2-[(2-Chloro-4-fluorophenyl)amino]-7,7-dimethyl-N-[4-(trifluoromethyl)phenyl]-7,8-dihydro-1H-furo[3,2-e]benzimidazole-5-carboxamide], the inhibition at 1 µM stood at 95%, the inhibition at 10 µM was 98.7% and the IC50 was less than 50 nM.

With `CC1(C)Cc2c(c(C(=O)Nc3ccc(C(F)(F)F)cc3F)cc3nc(Nc4c(Cl)cncc4Cl)[nH]c23)O1` [Example-194, 2-((3,5-Dichloropyridin-4-yl)amino)-N-(2-fluoro-4-(trifluoromethyl)phenyl)-7,7-dimethyl-7,8-dihydro-1H-benzofuro[4,5-d]imidazole-5-carboxamide], the inhibition at 1 µM worked out at 99.2% and the inhibition at 10 µM was found to be 100%.

Turning to `CC1(C)Cc2c(c(C(=O)Nc3ccc(C(F)(F)F)cc3)cc3nc(Nc4c(Cl)cncc4Cl)[nH]c23)O1` [Example-10, 2-[(3,5-Dichloropyridin-4-yl)amino]-7,7-dimethyl-N-[4-(trifluoromethyl)phenyl]-7,8-dihydro-1H-furo[3,2-e]benzimidazole-5-carboxamide], the inhibition at 1 µM was found to be 83.4% and the inhibition at 10 µM was 91.8%.

Turning to `Cc1cc2c(o1)c(C(=O)Nc1ccc(F)cc1)cc1nc(Nc3c(Cl)cncc3Cl)[nH]c12` [Example-36, 2-[(3,5-Dichloropyridin-4-yl)amino]-N-(4-fluorophenyl)-7-methyl-1H-furo[3,2-e]benzimidazole-5-carboxamide], the inhibition at 1 µM amounted to 92.4%, the inhibition at 10 µM was 99.3% and the IC50 is greater than 100 nM.

`CC1(C)Cc2c(c(C(=O)NC3(c4ccc(C(F)(F)F)cc4)CC3)cc3nc(Nc4c(F)cccc4Cl)[nH]c23)O1` [Example-116, 2-[(2-Chloro-6-fluorophenyl)amino]-7,7-dimethyl-N-{1-[4-(trifluoromethyl)phenyl]cyclopropyl}-7,8-dihydro-1H-furo[3,2-e]benzimidazole-5-carboxamide]: the inhibition at 1 µM was 96.9%, the inhibition at 10 µM stood at 99.8% and the IC50 was less than 50 nM.

On to `CC1(C)Cc2c(c(C(=O)Nc3ccc(OC(F)F)nc3)cc3nc(Nc4c(F)cccc4Cl)[nH]c23)O1` [Example-115, 2-[(2-Chloro-6-fluorophenyl)amino]-N-[6-(difluoromethoxy)pyridin-3-yl]-7,7-dimethyl-7,8-dihydro-1H-furo[3,2-e]benzimidazole-5-carboxamide], for which the inhibition at 1 µM stood at 100%, the inhibition at 10 µM stood at 100% and the IC50 was less than 50 nM.

Take `Cc1cccc(Cl)c1Nc1nc2cc(C(=O)Nc3cc(F)c(F)cc3F)c3c(c2[nH]1)CC(C)(C)O3` [Example-192, 2-((2-Chloro-6-methylphenyl)amino)-7,7-dimethyl-N-(2,4,5-trifluorophenyl)-7,8-dihydro-1H-benzofuro[4,5-d]imidazole-5-carboxamide]: the inhibition at 1 µM was 97.1%, the inhibition at 10 µM amounted to 96.5% and the IC50 is less than 50 nM.

Regarding `CC1(C)Cc2c(c(C(=O)Nc3ccccc3C(F)(F)F)cc3nc(Nc4ccccc4C(C)(C)C)[nH]c23)O1` [Example-98, 2-[(2-tert-Butylphenyl)amino]-7,7-dimethyl-N-[2-(trifluoromethyl)phenyl]-7,8-dihydro-1H-furo[3,2-e]benzimidazole-5-carboxamide], the inhibition at 1 µM is 12% and the inhibition at 10 µM is 13.9%.

Take `CC1(C)Cc2c(c(C(=O)Nc3c(F)cccc3F)cc3nc(Nc4c(Cl)cccc4Cl)[nH]c23)O1` [Example-76, 2-[(2,6-Dichlorophenyl)amino]-N-(2,6-difluorophenyl)-7,7-dimethyl-7,8-dihydro-1H-furo[3,2-e]benzimidazole-5-carboxamide]: the inhibition at 1 µM was found to be 95.8%, the inhibition at 10 µM worked out at 99.6% and the IC50 was less than 50 nM.

Turning to `Cn1c(Nc2c(Cl)cncc2Cl)nc2cc(C(=O)Nc3ccc(C(F)(F)F)cc3)c3c(c21)CC(C)(C)O3` [Example-215, 2-((3,5-dichloropyridin-4-yl)amino)-1,7,7-trimethyl-N-(4-(trifluoromethyl)phenyl)-7,8-dihydro-1H-benzofuro[4,5-d]imidazole-5-carboxamide], the inhibition at 1 µM was 96.3% and the inhibition at 10 µM turned out to be 94.1%.

As to `CC1(C)Cc2c(c(C(=O)Nc3ccccc3C(F)(F)F)cc3nc(Nc4c(F)cccc4Cl)[nH]c23)O1` [Example-77, 2-[(2-Chloro-6-fluorophenyl)amino]-7,7-dimethyl-N-[2-(trifluoromethyl)phenyl]-7,8-dihydro-1H-furo[3,2-e]benzimidazole-5-carboxamide], the inhibition at 1 µM is 93.1%, the inhibition at 10 µM was 89.9% and the IC50 was less than 50 nM.
